The molecules below were run against T1, neurotensin receptor (Mus musculus, UniProt O88319) (assay: Inhibition of [3H] neurotensin binding in a receptor assay). Conditions: [3H] neurotensin receptor binding.
T1 construct: from tissue
Experimental: (§1) Thus, the compounds of Formula I were tested for their ability to inhibit [^3 H] neurotensin binding in a receptor assay described by Mazella J., et al., Journal of Biological Chemistry, 263:144-149 (1988) and Kitabgi P., et al., European Journal of Pharmacology, 140:285-293 (1987). Compounds were tested as neurotensin antagonists using the functional assay described by Bunzou J. C., et al., Biochem. J., 264:871-878 (1989) and Turner J., et al., J. Pharm. Exp. Ther., 253:1049-1056 (1990). Thus, compounds were tested for their ability to inhibit neurotensin-induced calcium mobilization in HT29 cells.
(§2) The above test methods are incorporated herein by reference. The data in the table show the neurotensin receptor binding activity and calcium mobilization activity, of representative compounds of Formula I.

T1 sequence (O88319 whole entry): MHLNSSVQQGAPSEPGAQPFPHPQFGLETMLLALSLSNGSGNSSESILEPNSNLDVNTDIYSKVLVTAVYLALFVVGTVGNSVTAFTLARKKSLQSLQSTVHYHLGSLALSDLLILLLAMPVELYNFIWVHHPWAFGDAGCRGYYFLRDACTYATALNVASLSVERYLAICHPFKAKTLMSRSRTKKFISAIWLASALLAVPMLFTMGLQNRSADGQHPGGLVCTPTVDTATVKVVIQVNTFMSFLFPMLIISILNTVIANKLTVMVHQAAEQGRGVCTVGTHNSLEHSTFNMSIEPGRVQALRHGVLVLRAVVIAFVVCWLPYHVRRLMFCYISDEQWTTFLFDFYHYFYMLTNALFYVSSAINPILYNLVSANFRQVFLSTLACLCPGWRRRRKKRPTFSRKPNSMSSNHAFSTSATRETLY

Row | SMILES | Ki [µM]
1 | O=C(O)c1cccc(C(CCc2ccc(Cl)cc2)CC(=O)c2ccccc2)c1 (stereo not drawn) [Example 19, 3-[1-[2-(4-Chlorophenyl)ethyl]-3-oxo-3-phenylpropyl]-benzoic acid] | 17.7
2 | Cc1ccc(C(=O)CC(CC(=O)c2ccc(F)cc2)c2cccc(C(=O)O)c2)cc1 (stereo not drawn) [Example 15, 3-[1-[2-(4-Fluorophenyl)-2-oxoethyl]-3-oxo-3-p-tolylpropyl]-benzoic acid] | 0.448
3 | O=C(O)c1cccc(C(CCc2ccccc2)CC(=O)c2ccc(Cl)cc2)c1 (stereo not drawn) [Example 23, 3-[3-(4-Chlorophenyl)-3-oxo-1-[2-phenylethyl]propyl]-benzoic acid] | 10.4
4 | O=C(O)c1cccc(C(CCc2ccc(F)cc2)CC(=O)c2ccccc2)c1 (stereo not drawn) [Example 21, 3-[1-[2-(4-Fluorophenyl)ethyl]-3-oxo-3-phenylpropyl]-benzoic acid] | 29.5

Next, values leading:

Row | Ki [µM] | SMILES
5 | 6.32 | O=C(CC(CC(=O)c1ccc(F)cc1)c1cccc(-c2nnn[nH]2)c1)c1ccc(F)cc1 [Example 17, 1,5-Bis-(4-fluorophenyl)-3-[3-(1H-tetrazol-5-yl)-phenyl]-pentane-1,5-dione]
6 | 5.9 | O=C(CC(CC(=O)c1ccc(Cl)cc1)c1cccc(-c2nnn[nH]2)c1)c1ccc(Cl)cc1 [Example 18, 1,5-Bis-(4-chlorophenyl)-3-[3-(1H-tetrazol-5-yl)phenyl]-pentane-1,5-dione]
7 | 3.24 | O=C(O)c1cccc(C(CCc2ccc(F)cc2)CC(=O)c2ccc(F)cc2)c1 (stereo not drawn) [Example 22, 3-[3-(4-Fluorophenyl)-1-[2-(4-fluorophenyl)ethyl]-3-oxopropyl]-benzoic acid]
8 | 6.74 | O=C(O)c1cccc(C(CCc2ccc(Cl)cc2)CC(=O)c2ccc(Cl)cc2)c1 (stereo not drawn) [Example 20, 3-[3-(4-Chlorophenyl)-1-[2-(4-chlorophenyl)ethyl]-3-oxopropyl]-benzoic acid]

What follows are molecules tested against T2, neurotensin receptor (Homo sapiens, UniProt P30989) (assay: Inhibition of neurotensin-induced calcium mobilization in HT29 cells). Conditions: not given.
T2 construct: endogenous in cells; host or cells: HT29 cells
T2 sequence (P30989 whole entry): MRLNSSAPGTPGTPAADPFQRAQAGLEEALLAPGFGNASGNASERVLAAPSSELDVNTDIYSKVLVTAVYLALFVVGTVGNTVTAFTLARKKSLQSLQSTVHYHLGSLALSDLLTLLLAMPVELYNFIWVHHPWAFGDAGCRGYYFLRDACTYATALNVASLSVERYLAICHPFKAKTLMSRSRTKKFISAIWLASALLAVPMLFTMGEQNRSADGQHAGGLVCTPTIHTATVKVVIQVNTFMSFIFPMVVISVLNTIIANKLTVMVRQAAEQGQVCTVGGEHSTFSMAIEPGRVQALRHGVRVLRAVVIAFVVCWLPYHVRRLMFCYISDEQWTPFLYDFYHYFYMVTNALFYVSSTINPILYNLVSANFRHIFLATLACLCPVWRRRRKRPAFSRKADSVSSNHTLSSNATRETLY
Type: cell-based
Experimental: as §1, §2

Row | IC50 [µM] | SMILES
9 | 2.2 | COc1cccc(OC)c1C(=O)CC(CC(=O)c1ccc(Cl)cc1)c1cccc(C(=O)O)c1 (stereo not drawn) [Example 7, 3-[1-[2-(4-Chlorophenyl)-2-oxoethyl]-3-(2,6-dimethoxyphenyl)-3-oxopropyl]-benzoic acid]
